From article doi:10.1101/2022.11.06.515312v1 (biorxiv, 2022)

T1: OsLAT1 (Oryza sativa, UniProt Q6Z8D0)
T1 sequence (Q6Z8D0 1-531): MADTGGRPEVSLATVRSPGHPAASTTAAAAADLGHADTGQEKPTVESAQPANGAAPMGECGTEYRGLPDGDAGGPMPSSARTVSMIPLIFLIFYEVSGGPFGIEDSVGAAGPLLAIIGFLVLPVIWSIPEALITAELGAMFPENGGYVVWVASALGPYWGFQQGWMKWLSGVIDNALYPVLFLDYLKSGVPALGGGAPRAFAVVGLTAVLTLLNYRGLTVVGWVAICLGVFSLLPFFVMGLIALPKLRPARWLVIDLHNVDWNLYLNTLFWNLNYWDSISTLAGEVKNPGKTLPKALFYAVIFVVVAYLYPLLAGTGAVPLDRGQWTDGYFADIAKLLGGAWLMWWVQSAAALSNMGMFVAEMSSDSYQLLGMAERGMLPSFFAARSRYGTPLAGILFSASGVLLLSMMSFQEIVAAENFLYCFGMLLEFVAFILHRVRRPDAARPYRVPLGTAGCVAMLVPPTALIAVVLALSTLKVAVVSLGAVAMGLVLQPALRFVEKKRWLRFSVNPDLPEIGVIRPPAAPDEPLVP

B1: OsLAT1 (Oryza sativa Japonica Group) (protein)
chain: MADTGGRPEVSLATVRSPGHPAASTTAAAAADLGHADTGQEKPTVESAQPANGAAPMGECGTEYRGLPDGDAGGPMPSSARTVSMIPLIFLIFYEVSGGPFGIEDSVGAAGPLLAIIGFLVLPVIWSIPEALITAELGAMFPENGGYVVWVASALGPYWGFQQGWMKWLSGVIDNALYPVLFLDYLKSGVPALGGGAPRAFAVVGLTAVLTLLNYRGLTVVGWVAICLGVFSLLPFFVMGLIALPKLRPARWLVIDLHNVDWNLYLNTLFWNLNYWDSISTLAGEVKNPGKTLPKALFYAVIFVVVAYLYPLLAGTGAVPLDRGQWTDGYFADIAKLLGGAWLMWWVQSAAALSNMGMFVAEMSSDSYQLLGMAERGMLPSFFAARSRYGTPLAGILFSASGVLLLSMMSFQEIVAAENFLYCFGMLLEFVAFILHRVRRPDAARPYRVPLGTAGCVAMLVPPTALIAVVLALSTLKVAVVSLGAVAMGLVLQPALRFVEKKRWLRFSVNPDLPEIGVIRPPAAPDEPLVP

Columns and labels:
Conditions in all cases: 5-50 uM substrate, 1 h, 0.333 mM MES pH 5.7, 2% galactose
[1] = test system: OsLAT5; experiment: uptake into yeast, UPLC-MS/MS, vector control subtracted; assay type: cell-based, Oryza sativa subsp. japonica
[2] = target: T1, OsLAT1; experiment: as above
[3] = substrate: c1cc[n+]2c(c1)-c1cccc[n+]1CC2; experiment: cells, lysate or membranes

Row | Molecule | Km [1] | Km [2] | Km [3]
1 | c1cc[n+]2c(c1)-c1cccc[n+]1CC2 [diquat, 1,10-ethylene-2,20-bipyridinium dibromide] | 13.8 ± 3.24 µM |  | 
2 | C[n+]1ccc(-c2cc[n+](C)cc2)cc1 [paraquat] | 11.7 ± 4.04 µM | 40.8 ± 9.61 µM | 
3 | B1 |  |  | 23.98 ± 6.77 µM
